Experimental data as given in publication PMC10025480 (Frontiers in Pharmacology, 2023).
Read-outs that look alike come from different tables or passages of the source.

Assays:
CF-HBE cells = assay: Short-circuit current (ISC), IL-13 pre-treated CF-HBE; format: cell-based, human
Description: HBE cultured at air-liquid interface (ALI) for 14–21 days were mounted in Ussing chambers in symmetrical Ringers solution containing (in mM): 120 NaCl, 25 NaHCO3, 3.3 KH2PO4, 0.8 K2HPO4, 1.2 CaCl2, 1.2 MgCl2, and 10 glucose, and voltage clamped as described above. In some studies, HBE were pre-treated with IL-13 (10 ng/mL; Peprotech, United Kingdom) for 48 h to increase TMEM16A expression levels ([Caputo et al., 2008]). Amiloride (10 μM; apical) was used to block the spontaneous, ENaC-mediated current, whilst UTP (10 μM; apical) and forskolin (10 μM; apical and basolateral) were added to the bath solutions to activate Ca^2+ and cAMP-dependent anion secretory responses, respectively. Inh172 (30 μM; apical and basolateral) was also used to inhibit CFTR function. The TMEM16A blockers were added to the apical side of the Ussing chambers to evaluate effects on each of these currents.

FRT-TMEM16Aabc cells = assay: Intracellular Ca2+ measurement (Calcium6), FRT-TMEM16Aabc cells; format: cell-based; conditions: 10 min pre-treatment
Description: CF-HBE cultured at air-liquid interface for 14–21 days were pre-treated with IL-13 (10 ng/mL; 48 h). CF-HBE were then loaded with the Ca^2+-sensitive fluorescent reporter dye, Calcium6 for 120 min at 37°C in Hanks balanced salt solution (HBSS) buffered with 20 mM HEPES (pH 7.4). […] The direct effects of apically administered TMEM16A blockers on [Ca^2+]i as well as effects on the subsequent responses to UTP were measured using a PHERAstar plate reader (BMG Lab Tech, United Kingdom). Equivalent measurements were performed in FRT-TMEM16Aabc cells that had been cultured in 96 well, clear bottom plastic plates and loaded with Calcium6 using the same protocol.

hTMEM16Aabc [1] = biological target: T1, hTMEM16Aabc (Homo sapiens, UniProt Q5XXA6, DEL476-501); assay: Whole-cell patch clamp (QPatch), FRT-hTMEM16Aabc cells; format: cell-based; conditions: for IC50: [Ca2+]i clamped at 415 nM
T1 construct: expressed in transfected cells
T1 sequence (Q5XXA6 with tags, fused parts or gaps isoform Q5XXA6-5 DEL539-564): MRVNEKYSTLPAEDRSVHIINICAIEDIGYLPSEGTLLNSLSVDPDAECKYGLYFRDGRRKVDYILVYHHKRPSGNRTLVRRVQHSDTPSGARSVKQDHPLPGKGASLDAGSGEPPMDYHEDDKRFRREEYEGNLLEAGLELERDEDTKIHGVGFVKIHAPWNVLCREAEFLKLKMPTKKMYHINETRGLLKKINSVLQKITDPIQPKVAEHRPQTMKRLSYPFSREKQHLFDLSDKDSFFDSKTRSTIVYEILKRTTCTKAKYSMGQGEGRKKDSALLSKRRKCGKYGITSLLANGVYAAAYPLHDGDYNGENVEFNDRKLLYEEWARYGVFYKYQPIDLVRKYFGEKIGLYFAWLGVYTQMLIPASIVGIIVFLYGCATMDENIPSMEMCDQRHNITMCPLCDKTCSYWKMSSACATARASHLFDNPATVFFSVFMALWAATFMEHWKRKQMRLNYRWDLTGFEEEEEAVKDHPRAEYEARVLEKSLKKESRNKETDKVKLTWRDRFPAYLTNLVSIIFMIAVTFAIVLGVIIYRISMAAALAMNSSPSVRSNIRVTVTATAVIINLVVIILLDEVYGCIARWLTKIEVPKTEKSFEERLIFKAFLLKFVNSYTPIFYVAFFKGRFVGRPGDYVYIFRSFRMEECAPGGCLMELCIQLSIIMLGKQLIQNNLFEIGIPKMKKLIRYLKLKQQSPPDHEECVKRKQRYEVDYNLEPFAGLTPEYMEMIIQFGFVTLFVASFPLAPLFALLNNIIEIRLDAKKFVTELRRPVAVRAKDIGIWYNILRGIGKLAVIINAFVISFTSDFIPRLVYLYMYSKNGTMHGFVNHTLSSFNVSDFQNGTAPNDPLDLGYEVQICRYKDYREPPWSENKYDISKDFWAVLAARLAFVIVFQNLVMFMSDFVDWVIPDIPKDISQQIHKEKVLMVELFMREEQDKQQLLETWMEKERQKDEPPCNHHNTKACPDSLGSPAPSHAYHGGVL
Description: Current rectification ratios were calculated by dividing the magnitude of the outward current at +90 mV by the magnitude of the inward current at −90 mV.

hTMEM16Aabc [2] = biological target: T1, hTMEM16Aabc; assay: Short-circuit current (ISC), FRT-TMEM16Aabc monolayers in Ussing chambers; format: cell-based; conditions: for UTP-stimulated integrated ISC response (AUC) / UTP-stimulated peak increase in ISC: 5 min pre-treatment, apical, UTP 10 µM, concentration-dependent
Description: FRT-hTMEM16Aabc cells were mounted in Ussing chambers in asymmetrical Ringers solutions. The basolateral Ringers contained (in mM): 120 NaCl, 25 NaHCO3, 3.3 KH2PO4, 0.8 K2HPO4, 1.2 CaCl2, 1.2 MgCl2, and 10 glucose. In the apical Ringers solution, NaCl was reduced to 80 mM and 40 mM sodium gluconate was included to establish a Cl^− gradient. The solution osmolarity was between 280 and 300 mosmol kg H2O^−1 and was continuously gassed (5% CO2 in O2; pH 7.4) and maintained at 37°C. Cells were voltage clamped to 0 mV (model EVC4000; WPI) and the short-circuit current (ISC) was measured. Data were recorded using a PowerLab workstation and LabChart software (ADInstruments, Abingdon, Oxon, United Kingdom). TMEM16A blockers were added to the apical side of the epithelium for 5 min before the addition of UTP, that was used to stimulate a TMEM16A-mediated chloride secretory responses.

[3] = tested on: panel of 22 functional GPCR assays; assay: SelectScreen cell-based GPCR assay panel; conditions: 10 µM
Description: Profiling of compound activity versus a select panel of diverse GPCRs was undertaken by ThermoFisher Scientific (United Kingdom) via their SelectScreen cell-based GPCR assay panel. Detailed experimental protocols on this assay platform can be found at (https://www.thermofisher.com/content/dam/LifeTech/migration/en/filelibrary/services/discovery-research/pdfs.par.36410.file.dat/sscg-brochure.pdf). Briefly these assays detect agonist or antagonist activity using cell lines with the GPCR of interest over-expressed, driving the expression of a reporter gene encompassing a mammalian-optimized Beta-lactamase. Test compounds are incubated with the specific cell lines at the defined final concentration for 5 or 16 h (depending on the cell line specifics) before quantification of effect.

[4] = after amiloride, 5 min pre-treatment

IC50 (hTMEM16Aabc [1]; IC50 (printed in Figure 1, concentration-response curves), hTMEM16Aabc currents in FRT cells) [µM] | IC50 (hTMEM16Aabc [1]; IC50, inhibition of TMEM16Aabc currents, assessed at +90 mV, FRT cells) [µM] | IC50 (hTMEM16Aabc [1]; at −90 mV, FRT cells, read-out: IC50, inhibition of TMEM16Aabc currents) [µM] | inhibition at 30 µM (hTMEM16Aabc [1]; highest concentration tested, 30 µM, [Ca2+]i 415 nM, read-out: inhibition of TMEM16Aabc current) [%] | effect on baseline ISC prior to UTP (hTMEM16Aabc [2]) | UTP-stimulated integrated ISC response (AUC) (hTMEM16Aabc [2]) | UTP-stimulated peak increase in ISC (hTMEM16Aabc [2]) | current reversal potential (hTMEM16Aabc [1]; 30 µM, vehicle −12.3 ± 2.0 mV) [mV] | transient increase in ISC on addition (hTMEM16Aabc [2]; 10 µM, vehicle 0.0 ± 0.1) [µAcm^-2] | subsequent attenuation of the baseline current (hTMEM16Aabc [2]; 10 µM, vehicle −0.3 ± 0.1) [µAcm^-2] | SMILES | direct effect on amiloride-insensitive baseline ISC (CF-HBE cells) | UTP-stimulated ISC AUC (CF-HBE cells; [4]) | UTP-stimulated peak increase in ISC (CF-HBE cells; [4]) | UTP-stimulated increase in [Ca2+]i (FRT-TMEM16Aabc cells) | number of GPCRs inhibited by ≥ 50% [3] | immediate, transient increase in ISC (CF-HBE cells; 10 µM, vehicle 0.5 ± 0.2) [µAcm^-2] | change to lower baseline ISC than before compound addition (CF-HBE cells; 10 µM, vehicle −0.3 ± 0.1) [µAcm^-2] | effect on TMEM16Aabc currents (hTMEM16Aabc [1]; bell-shaped response, [Ca2+]i 415 nM)
3.05 ± 0.586 | 3 ± 0.6 | 1.3 ± 0.3 | 96 | without effect | attenuated | attenuated |  |  |  | CCc1oc2ccccc2c1C(=O)c1cc(Br)c(O)c(Br)c1 [benzbromarone] | Neither Ani9 nor benzbromarone had any direct effect | attenuated | attenuated | significantly attenuated | 6 |  |  | 
 |  |  |  |  | attenuated | attenuated | −29.8 ± 1.3 | 4.4 ± 0.3 | −6.7 ± 0.7 | O=C(Nc1ccc([N+](=O)[O-])cc1Cl)c1cc(Cl)ccc1O [niclosamide] |  |  | attenuated | significantly attenuated | 11 | 6.8 ± 1.0 | −0.9 ± 0.2 | potentiation of currents at concentrations up to 1.1 µM
